Reference: patent US10464896B2, “Efflux-pump inhibitors and therapeutic uses thereof” (Basilea Pharmaceutica International AG, priority 2015, dated 2019)

tested on: E. coli ATCC25922; test: Antibacterial activity in combination with minocycline (growth inhibition); format: cell-based; conditions: Escherichia coli, ATCC25922, compound at 25 μM; minocycline 0.25 μg/mL; OD625 23 h minus 1 h; read-out: residual growth of E. coli ATCC25922 (% of uninhibited control) with minocycline
Protocol: Antibacterial activity in combination with minocycline or with linezolid
Inhibition of growth was measured with E. coli ATCC25922 and P. aeruginosa PAO1 in a 96-well plate format. Cation-adjusted Müller-Hinton broth (caMHB) was inoculated with an overnight culture and incubated at 37° C. on a shaker until OD625 reached 0.6 to 0.7. Density was adjusted to OD600=0.5 by addition of caMHB. 35 μL of the suspension were diluted to 35 mL with caMHB and supplemented with minocycline at the subinhibitory doses of 0.25 μg/mL for E. coli and 8 μg/mL for P. aeruginosa or with linezolid at the subinhibitory dose of 128 μg/mL for E. coli and P. aeruginosa. Each well contained 1 μL of test compound in 100 μL caMHB with minocycline or with linezolid.
Plates were incubated at 37° C. on a plate shaker. OD625 was measured at 1 h, 6 h, and at 23 h.
The difference between OD at 23 h and at 1 h was taken as measure for cell density and compared to controls without inhibitor (i.e. uninhibited control). Results were expressed as residual growth (% of uninhibited control). Enhancement of minocycline or linezolid activity caused reduced residual growth.

| Compound | activity at 25 µM [%] |
| --- | --- |
| Clc1ccc(COc2cccc(CNCC3CNC3)c2)c(Br)c1 [Example 18] | ≤ 10 |
| Clc1ccc(-c2ccc(CNCC3CNC3)cc2)cc1 [Example 25] | ≤ 10 |
| CC(C)(c1ccccc1)c1ccc(OCCCNCC2CNC2)cc1 [Example 29] | ≤ 10 |
| Clc1ccc(COc2cccc(CNCC3CCNC3)c2)c(Br)c1 (stereo not drawn) [Example 30] | ≤ 10 |
| CC(C)(c1ccccc1)c1ccc(OCCCNCC2CCNCC2)cc1 [Example 31] | ≤ 10 |
| CC(C)(c1ccccc1)c1ccc(OCCCNCC2CCNC2)cc1 (stereo not drawn) [Example 32] | ≤ 10 |
| Clc1ccc(COc2ccccc2CNCC2CNC2)c(Br)c1 [Example 33] | ≤ 10 |
| Fc1ccc(COc2cccc(CNCC3CNC3)c2)c(F)c1 [Example 34] | ≤ 10 |
| Clc1ccc(COc2cccc(CNCC3CCNCC3)c2)c(Br)c1 [Example 35] | ≤ 10 |
| Clc1cc(CNCC2CNC2)cc(OCc2ccc(Cl)cc2Br)c1 [Example 37, N-(azetidin-3-ylmethyl)-1-[3-[(2-bromo-4-chloro-phenyl)methoxy]-5-chloro-phenyl]methanamine] | ≤ 10 |
| Clc1ccc(OCc2cccc(CNCC3CNC3)c2)c(Br)c1 [Example 38] | ≤ 10 |
| CC(C)(c1ccccc1)c1ccc(OCCNCC2CCNCC2)cc1 [Example 39] | ≤ 10 |
| Clc1cc(Cl)cc(COc2cccc(CNCC3CNC3)c2)c1 [Example 40] | ≤ 10 |
| Brc1ccccc1COc1cccc(CNCC2CNC2)c1 [Example 41] | ≤ 10 |
| CC(C)(c1ccccc1)c1ccc(OCCNCC2CCNC2)cc1 (stereo not drawn) [Example 42] | ≤ 10 |
| Fc1cc(F)cc(COc2cccc(CNCC3CNC3)c2)c1 [Example 43] | ≤ 10 |
| CC(C)(c1ccccc1)c1ccc(CNCC2CCNC2)cc1 (stereo not drawn) [Example 44] | ≤ 10 |
| CC(C)(c1ccccc1)c1ccc(CNCC2CNC2)cc1 [Example 45] | ≤ 10 |
| CC(C)(c1ccccc1)c1ccc(CNCC2CCNCC2)cc1 [Example 46] | ≤ 10 |
| FC(F)(F)c1cc(Br)ccc1COc1cccc(CNCC2CNC2)c1 [Example 47] | ≤ 10 |
| FC(F)(F)c1ccc(COc2cccc(CNCC3CNC3)c2)c(Cl)c1 [Example 49] | ≤ 10 |
| Clc1ccc(CSc2cccc(CNCC3CNC3)c2)c(Br)c1 [Example 51, N-(azetidin-3-ylmethyl)-1-[3-[(2-bromo-4-chloro-phenyl)methylsulfanyl]phenyl]methanamine] | ≤ 10 |
| Fc1cc(Br)ccc1COc1ccc(CNCC2CCNCC2)cc1 [Example 52] | ≤ 10 |

| Compound | activity at 25 µM [%] |
| --- | --- |
| Clc1ccc(OCc2cccc(CNC3CCNCC3)c2)c(Br)c1 [Example 53] | ≤ 10 |
| Fc1cc(Br)ccc1COc1ccc(CNCC2CCNC2)cc1 (stereo not drawn) [Example 55] | ≤ 10 |
| Fc1cc(Br)ccc1COc1ccc(CNCC2CNC2)cc1 [Example 56] | ≤ 10 |
| Clc1ccc(OCc2cccc(CCNCC3CNC3)c2)c(Br)c1 [Example 58] | ≤ 10 |
| CC(C)(C)c1ccc(COc2ccc(CNC3CCNCC3)cc2)cc1 [Example 59] | ≤ 10 |
| Fc1cc(Br)ccc1COc1ccc(CNC2CCNCC2)cc1 [Example 60] | ≤ 10 |
| Clc1ccc(/C=C/c2cccc(CNCC3CNC3)c2)c(Br)c1 [Example 61] | ≤ 10 |
| Clc1ccc(-c2ccc(CNCC3CCNC3)cc2)c(Br)c1 (stereo not drawn) [Example 62] | ≤ 10 |
| Clc1ccc(CCc2cccc(CNCC3CNC3)c2)c(Br)c1 [Example 64, N-(azetidin-3-ylmethyl)-1-[3-[2-(2-bromo-4-chloro-phenyl)ethyl]phenyl]methanamine] | ≤ 10 |
| Clc1ccc(OCc2cccc(CNCC3CNCCO3)c2)c(Br)c1 (stereo not drawn) [Example 65] | ≤ 10 |
| Clc1ccc(COc2ccc(CNCC3CNC3)cc2)cc1Cl [Example 66] | ≤ 10 |
| Clc1ccc(COc2ccc(CNCC3CCNCC3)cc2)cc1Cl [Example 67] | ≤ 10 |
| Clc1ccc(-c2ccc(CNCC3CNC3)cc2)c(Br)c1 [Example 68, N-(azetidin-3-ylmethyl)-1-[4-(2-bromo-4-chloro-phenyl)phenyl]methanamine] | ≤ 10 |
| Clc1ccc(COc2ccc(CNCC3CCNC3)cc2)cc1Cl (stereo not drawn) [Example 70] | ≤ 10 |
| Brc1ccccc1COc1ccc(CNC2CCNCC2)cc1 [Example 71] | ≤ 10 |
| Brc1ccccc1COc1ccc(CNCC2CCNCC2)cc1 [Example 72] | ≤ 10 |
| Clc1ccc(OCc2cccc(CCCNCC3CNC3)c2)c(Br)c1 [Example 73] | ≤ 10 |
| Clc1ccc(-c2cccc(CNCC3CNC3)c2)c(Br)c1 [Example 75] | ≤ 10 |
| Brc1ccccc1COc1ccc(CNCC2CCNC2)cc1 (stereo not drawn) [Example 80] | ≤ 10 |
| Clc1ccc(Oc2ccc(CNCC3CNC3)cc2)c(Br)c1 [Example 81] | ≤ 10 |
| Clc1ccc(Oc2ccccc2CNCC2CCNC2)c(Br)c1 (stereo not drawn) [Example 84] | ≤ 10 |
| N#Cc1ccc(COc2ccc(CNCC3CNC3)cc2)c(Br)c1 [Example 85] | ≤ 10 |
| Clc1ccc(Oc2cccc(CNCC3CCNC3)c2)c(Br)c1 (stereo not drawn) [Example 88, 1-[3-(2-bromo-4-chloro-phenoxy)phenyl]-N-(pyrrolidin-3-ylmethyl)methanamine] | ≤ 10 |

| Compound | activity at 25 µM [%] |
| --- | --- |
| Clc1ccc(Oc2cccc(CNCC3CNC3)c2)c(Br)c1 [Example 90] | ≤ 10 |
| c1ccc(-c2cccc(COc3cccc(CNCC4CNC4)c3)c2)cc1 [Example 94] | ≤ 10 |
| c1ccc(-c2ccc(COc3cccc(CNCC4CNC4)c3)cc2)cc1 [Example 95] | ≤ 10 |
| Clc1ccc(OCCOc2ccc(CNCC3CNC3)cc2)c(Br)c1 [Example 96] | ≤ 10 |
| Clc1ccc(COc2ccc(Br)c(CNCC3CNC3)c2)c(Br)c1 [Example 97] | ≤ 10 |
| Fc1cc(CNCC2CNC2)cc(OCc2ccc(Cl)cc2Br)c1 [Example 103] | ≤ 10 |
| FC(F)(F)c1cc(CNCC2CNC2)cc(OCc2ccc(Cl)cc2Br)c1 [Example 104] | ≤ 10 |
| CC(NCC1CNC1)c1ccc(OCc2ccc(Cl)cc2Br)cc1 (stereo not drawn) [Example 105] | ≤ 10 |
| C=CCOc1cc(CNCC2CNC2)cc(OCc2ccc(Cl)cc2Br)c1 [Example 106] | ≤ 10 |
| C=CCOc1cc(CNCC2CCNC2)cc(OCc2ccc(Cl)cc2Br)c1 (stereo not drawn) [Example 108] | ≤ 10 |
| C=CCOc1cc(CNCC2CCNCC2)cc(OCc2ccc(Cl)cc2Br)c1 [Example 109] | ≤ 10 |
| Clc1ccc(COc2cccc(CCCNCC3CNC3)c2)c(Br)c1 [Example 111] | ≤ 10 |
| Clc1ccc(COc2cccc(CCCNCC3CCNC3)c2)c(Br)c1 (stereo not drawn) [Example 112] | ≤ 10 |
| Clc1ccc(COc2ccccc2CCCNCC2CNC2)c(Br)c1 [Example 113] | ≤ 10 |
| Clc1ccc(COc2ccccc2CCCNCC2CCNC2)c(Br)c1 (stereo not drawn) [Example 114] | ≤ 10 |
| Clc1ccc(COc2ccc(CCCNCC3CNC3)cc2)c(Br)c1 [Example 116] | ≤ 10 |
| Clc1ccc(COc2ccc(CCCNCC3CCNC3)cc2)c(Br)c1 (stereo not drawn) [Example 117] | ≤ 10 |
| O=C(NCc1ccccc1)c1cc(CNCC2CNC2)cc(OCc2ccc(Cl)cc2Br)c1 [Example 119, 3-[(azetidin-3-ylmethylamino)methyl]-N-benzyl-5-[(2-bromo-4-chloro-phenyl)methoxy]-benzamide] | ≤ 10 |
| Brc1ccc(/C=C/c2ccccc2)cc1OCCCNCC1CNC1 [Example 120] | ≤ 10 |
| Clc1ccc(COc2cccc(CCNCC3CNC3)c2)c(Br)c1 [Example 121] | ≤ 10 |
| Clc1ccc(COc2cccc(CCNCC3CCNC3)c2)c(Br)c1 (stereo not drawn) [Example 122] | ≤ 10 |
| Clc1ccc(COc2ccccc2CCNCC2CCNC2)c(Br)c1 (stereo not drawn) [Example 123] | ≤ 10 |

same assay, conditions: Escherichia coli, ATCC25922, compound at 50 μM; minocycline 0.25 μg/mL; OD625 23 h minus 1 h; read-out: residual growth of E. coli ATCC25922 (% of uninhibited control) with minocycline

| Compound | activity at 50 µM [%] |
| --- | --- |
| Clc1ccc(COc2ccccc2CNCC2CCNCC2)cc1 [Example 5] | ≤ 50 |
| Clc1ccccc1COc1ccccc1CNCC1CCNCC1 [Example 8] | ≤ 50 |
| Clc1ccc(COc2cccc(CNCC3CNC3)c2)cc1 [Example 13] | ≤ 50 |
| Clc1ccc(COc2ccccc2CNCC2CNC2)cc1 [Example 22] | ≤ 50 |
| Clc1ccc(COc2cccc(NCC3CNC3)c2)cc1 [Example 23, N-(azetidin-3-ylmethyl)-3-[(4-chlorophenyl)methoxy]aniline] | ≤ 50 |
| Clc1ccc(-c2ccccc2CNCC2CCNC2)c(Br)c1 (stereo not drawn) [Example 69] | ≤ 50 |

same assay, conditions: Escherichia coli, ATCC25922, read-out: residual growth of E. coli ATCC25922 (% of uninhibited control) with minocycline, compound at 25 μM; minocycline 0.25 μg/mL; OD625 23 h minus 1 h

| Compound | activity at 25 µM [%] |
| --- | --- |
| Clc1ccc(C=CCc2cccc(CNCC3CNC3)c2)c(Br)c1 (mixture of isomers) [Example 168, N-(azetidin-3-ylmethyl)-1-[3-[(Z/E)-3-(2-bromo-4-chloro-phenyl)allyl]phenyl]methanamine] | ≤ 10 |
